# Laboratory results: patent US5874442A, “Tricyclic amides useful for inhibition of G-protein function and for treatment of proliferative disease” (Schering-Plough Corporation, priority 1996, dated 1999)
# Assays:
# Format in all cases: cell-based
# [1] = test system: DLD-1-BAG human colon carcinoma cells; test: Cell mat assay, DLD-1-BAG tumor cells; details: Homo sapiens, DLD-1, 336 h, read-out: Tumor (DLD-1) IC50
# Procedure: (§1) Compound-induced colony inhibition was assayed by addition of serial dilutions of compound directly to the growth medium 24 h after tumor cell planting, and incubating cells for an additional 14 d to allow colony formation. Assays were terminated by rinsing monolayers twice with phosphate-buffered saline (PBS), fixing the monolayers with a 1% glutaraldehyde solution in PBS, then visualizing tumor cells by staining with X-Gal (Price, J., et al., Lineage analysis in the vertebrate nervous system by retrovirus-mediated gene transfer, Proc. Natl. Acad. Sci.84, 156-160(1987)). […] Both IC50 values were obtained by determining the density of tumor cells and mat cells by visual inspection and enumeration of cells per colony and the number of colonies under the microscope.
# (§2) Additional assays were carried out by following essentially the same procedure as described above, but with substitution of alternative indicator tumor cell lines in place of the T24-BAG cells. The assays were conducted using either DLD-1-BAG human colon carcinoma cells expressing as activated K-ras gene or SW620-BAG human colon carcinoma cells expressing an activated K-ras gene.
# [2] = test system: SW620-BAG human colon carcinoma cells expressing an activated K-ras gene; test: Cell mat assay, SW620-BAG tumor cells; details: Homo sapiens, SW-620, 336 h, read-out: Tumor (SW620) IC50, Mat assay, 14 d
# Procedure: as §1, §2
# [3] = test system: T24-BAG4 human bladder carcinoma cells expressing an activated H-ras gene; test: Cell mat assay, T24-BAG4 tumor cells; details: Homo sapiens, 336 h, read-out: Tumor (T-24) IC50
# Procedure: as §1
# [4] = test system: HTB 175; test: Soft agar assay; details: Homo sapiens; HTB 175 (SCLC) ras mut. not detected; read-out: IC50, inhibition of human tumor cell growth, soft agar
# Procedure: (§3) Anchorage-independent growth is a characteristic of tumorigenic cell lines. Human tumor cells are suspended in growth medium containing 0.3% agarose and an indicated concentration of a farnesyl transferase inhibitor. The solution is overlayed onto growth medium solidified with 0.6% agarose containing the same concentration of farnesyl transferase inhibitor as the top layer. […] After incubation, the colonies are stained by overlaying the agar with a solution of MTT (3-[4,5-dimethylthiazol-2-yl]-2,5-diphenyltetrazolium bromide, Thiazolyl blue) (1 mg/mL in PBS). Colonies are counted and the IC50's determined.
# [5] = test system: HTB 177; test: Soft agar assay; details: Homo sapiens; HTB 177 (NSCLC) K ras mutation; read-out: IC50, inhibition of human tumor cell growth, soft agar
# Procedure: as §3
# [6] = test system: A549; test: Soft agar assay; details: Homo sapiens; A549 (lung) K ras mutation; read-out: IC50, inhibition of human tumor cell growth, soft agar
# Procedure: as §3
# [7] = test system: HTB 183 (NCI H661); test: Soft agar assay; details: Homo sapiens; HTB 183 (NCI H661) (NSCLC) ras mut. not detected; read-out: IC50, inhibition of human tumor cell growth, soft agar
# Procedure: (§4) Anchorage-independent growth is a characteristic of tumorigenic cell lines. Human tumor cells are suspended in growth medium containing 0.3% agarose and an indicated concentration of a farnesyl transferase inhibitor. The solution is overlayed onto growth medium solidified with 0.6% agarose containing the same concentration of farnesyl transferase inhibitor as the top layer. After the top layer is solidified, plates are incubated for 10-16 days at 37° C. under 5% CO2 to allow colony outgrowth. After incubation, the colonies are stained by overlaying the agar with a solution of MTT (3-[4,5-dimethylthiazol-2-yl]-2,5-diphenyltetrazolium bromide, Thiazolyl blue) (1 mg/mL in PBS). Colonies are counted and the IC50's determined.
# [8] = test system: MCF-7; test: Soft agar assay; details: Homo sapiens, MCF7; MCF-7 (breast) ras mut. not detected; read-out: IC50, inhibition of human tumor cell growth, soft agar
# Procedure: as §4
# [9] = test system: HBL100; test: Soft agar assay; details: Homo sapiens, HBL-100; HBL100 (breast) ras mut. not detected; read-out: IC50, inhibition of human tumor cell growth, soft agar
# Procedure: as §4
# [10] = test system: HPAF II; test: Soft agar assay; details: Homo sapiens; HPAF II (pancreatic) K ras mutation; read-out: IC50, inhibition of human tumor cell growth, soft agar
# Procedure: as §4
# [11] = test system: Du4475; test: Soft agar assay; details: Homo sapiens, DU-4475; Du4475 (breast) ras mut. not detected; read-out: IC50, inhibition of human tumor cell growth, soft agar
# Procedure: as §4
# [12] = test system: PC3 (prostate); test: Soft agar assay; details: Homo sapiens, read-out: IC50, inhibition of human tumor cell growth, soft agar
# Procedure: as §4
# [13] = test system: MDA MB 468; test: Soft agar assay; details: Homo sapiens; MDA MB 468 (breast) ras mut. not detected; read-out: IC50, inhibition of human tumor cell growth, soft agar
# Procedure: as §4
# [14] = test system: HTB 173 (NCI H146); test: Soft agar assay; details: Homo sapiens; HTB 173 (NCI H146) (SCLC) ras mut. not detected; read-out: IC50, inhibition of human tumor cell growth, soft agar
# Procedure: as §4
# [15] = test system: MDA MB453 (breast); test: Soft agar assay; details: Homo sapiens, MDA-MB-453, read-out: IC50, inhibition of human tumor cell growth, soft agar
# Procedure: as §4
# [16] = test system: DLD 1; test: Soft agar assay; details: Homo sapiens; DLD 1 (colon) K ras mutation; read-out: IC50, inhibition of human tumor cell growth, soft agar
# Procedure: as §4
# [17] = test system: BT474 (breast); test: Soft agar assay; details: Homo sapiens, BT-474, read-out: IC50, inhibition of human tumor cell growth, soft agar
# Procedure: as §4
# [18] = test system: DU 145; test: Soft agar assay; details: Homo sapiens; DU 145 (prostate) ras mut. not detected; read-out: IC50, inhibition of human tumor cell growth, soft agar
# Procedure: as §4
# [19] = test system: AsPc-1; test: Soft agar assay; details: Homo sapiens, ASPC1; AsPc-1 (pancreatic) K ras mutation; read-out: IC50, inhibition of human tumor cell growth, soft agar
# Procedure: as §4
# [20] = test system: HTB 119 (NCI H69); test: Soft agar assay; details: Homo sapiens; HTB 119 (NCI H69) (SCLC); read-out: IC50, inhibition of human tumor cell growth, soft agar
# Procedure: as §4
# [21] = test system: H ras NIH 3T3; test: Soft agar assay; details: Mus musculus, NIH3T3, read-out: IC50, inhibition of human tumor cell growth, soft agar
structure (smiles),measurement,setting,value
NC(=O)N1CCC(CC(=O)N2CCC([C@H]3c4ncc(Br)cc4CCc4cc(Cl)cc(Br)c43)CC2)CC1 [Example 10],IC50,[1],< 1600 nM
same,IC50,[2],3100 nM
same,IC50,[3],< 1600 nM
same,IC50,[4],250 nM
same,IC50,[5],40 nM
same,IC50,[6],150 nM
same,IC50,[7],500 nM
same,IC50,[8],< 600 nM
same,IC50,[9],< 600 nM
same,IC50,[10],< 500 nM
same,IC50,[11],600 nM
same,IC50,[12],1250 nM
same,IC50,[13],600 nM
same,IC50,[14],50 nM
same,IC50,[15],600 nM
same,IC50,[16],2500 nM
same,IC50,[17],1000 nM
same,IC50,[18],600 nM
same,IC50,[19],3000 nM
same,IC50,[20],300 nM
same,IC50,[21],75 nM
